Source: patent US20230174667A1 (priority 2020, published 2023)

Experiments:
[1] = tested on: NF-κB; experiment: Inhibition of SARS-CoV-2-induced NF-κB activation in A549/NF-κB-luc cells (luciferase); type: cell-based, human
[2] = tested on: heat-inactivated SARS-CoV-2; experiment: Inhibition of SARS-CoV-2 uptake into RAW 264.7 murine macrophages (flow cytometry); type: cell-based; details: co-administered with SARS-CoV-2
[3] = tested on: NF-κB; experiment: Inhibition of SARS-CoV-2-induced NF-κB activation in RAW 264.7/NF-κB-luc cells (luciferase); type: cell-based, murine; details: same agents as in the RAW 264.7 uptake test

heparan sulfate
inhibition of SARS-CoV-2-induced NF-κB activation (percent inhibition, FIG. 5) [1]: significantly (p<0.05) inhibited
inhibition of SARS-CoV-2 cellular uptake (percent inhibition, FIG. 7) [2]: significantly (p<0.05) inhibited
inhibition of SARS-CoV-2-induced NF-κB activation (percent inhibition, FIG. 8) [3]: inhibited

Cn1c2ccccc2c2c3c(c4c5ccccc5n(CCC#N)c4c21)CNC3=O [Gö 6983, Gö 6976]
inhibition of SARS-CoV-2-induced NF-κB activation (percent inhibition, FIG. 5) [1]: significantly (p<0.05) inhibited
inhibition of SARS-CoV-2 cellular uptake (percent inhibition, FIG. 7) [2]: significantly (p<0.05) inhibited
inhibition of SARS-CoV-2-induced NF-κB activation (percent inhibition, FIG. 8) [3]: inhibited

polyarginine: R8, amino acid sequence RRRRRRRR, synthesized by PepScan
inhibition of SARS-CoV-2-induced NF-κB activation (percent inhibition, FIG. 5) [1]: significantly (p<0.05) inhibited

NC(N)=NC(=O)c1nc(Cl)c(N2CCCCCC2)nc1N [hexamethylene amiloride]
inhibition of SARS-CoV-2-induced NF-κB activation (percent inhibition, FIG. 5) [1]: significantly (p<0.05) inhibited
inhibition of SARS-CoV-2 cellular uptake (percent inhibition, FIG. 7) [2]: significantly (p<0.05) inhibited
inhibition of SARS-CoV-2-induced NF-κB activation (percent inhibition, FIG. 8) [3]: inhibited

TAT peptide: amino acid sequence YGRKKRRQRRR, synthesized by PepScan
inhibition of SARS-CoV-2-induced NF-κB activation (percent inhibition, FIG. 5) [1]: significantly (p<0.05) inhibited

PRRAR peptide: PRRAR peptide from the heparin-binding motif of the S1 subunit of the SARS-CoV-2 spike protein (Pro681-Arg685) (UniProt P0DTC2 681-685, looked up, fragment)
inhibition of SARS-CoV-2 cellular uptake (percent inhibition, FIG. 7) [2]: significantly (p<0.05) inhibited
inhibition of SARS-CoV-2-induced NF-κB activation (percent inhibition, FIG. 8) [3]: inhibited

SPRRARSV peptide: SPRRARSV (Ser680-Val687, includes the PRRAR heparin-binding motif) from the S1 subunit of the SARS-CoV-2 spike protein
inhibition of SARS-CoV-2-induced NF-κB activation (percent inhibition, FIG. 5) [1]: significantly (p<0.05) inhibited

B1: recombinant SDC4: recombinant SDC4, RnD Systems, Cat. no. 2918-SD (protein, UniProt P31431 19-198, looked up)
Syndecan-4: ESIRETEVIDPQDLLEGRYFSGALPDDEDVVGPGQESDDFELSGSGDLDDLEDSMIGPEVVHPLVPLDNHIPERAGSGSQVPTEPKKLEENEVIPKRISPVEESEDVSNKVSMSSTVQGSNIFERTEVLAALIVGGIVGILFAVFLILLLMYRMKKKDEGSYDLGKKPIYKKAPTNEFYA
inhibition of SARS-CoV-2-induced NF-κB activation (percent inhibition, FIG. 5) [1]: significantly (p<0.05) inhibited
inhibition of SARS-CoV-2 cellular uptake (percent inhibition, FIG. 7) [2]: significantly (p<0.05) inhibited
inhibition of SARS-CoV-2-induced NF-κB activation (percent inhibition, FIG. 8) [3]: inhibited
